Data: ChEMBL document CHEMBL1201862, “PubChem BioAssay data set” (2004)
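Tested at 5 concentrations; 48 h exposure; 96-well plates; endpoints linearly interpolated, else capped at highest concentration. Here, GI50 denotes the concentration required for 50% inhibition of growth.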 Calls of active or inactive are those of the source. No stated cut-off is given here; in the data, active = GI50 up to about 1.1 µM and inactive = higher.

Tests used:
Assay in all cases: NCI anticancer screen, dose series, 48 h
Malme-3M = test system: Malme-3M
KM12 = test system: KM12
SR = test system: SR
HT-29 = test system: HT-29
UACC-257 = test system: UACC-257
K562 = test system: K562
MDA-MB-435 = test system: MDA-MB-435
OVCAR-8 = test system: OVCAR-8
OVCAR-5 = test system: OVCAR-5
SW-620 = test system: SW-620
SF-539 = test system: SF-539
MOLT-4 = test system: MOLT-4
MDA-N = test system: MDA-N
SF-295 = test system: SF-295
SK-MEL-28 = test system: SK-MEL-28
NCI-H23 = test system: NCI-H23
SN12C = test system: SN12C
Hs-578T = test system: Hs-578T
OVCAR-4 = test system: OVCAR-4
IGROV-1 = test system: IGROV-1

Measured: GI50

CC1OCC2OC(C)OC(C3C4=C(CC(C)(C)CC4=O)OC4=C3C(=O)CC(C)(C)C4)C2O1 (configuration not stated)
inactive: Malme-3M > 100 µM | KM12 > 100 µM | SR > 100 µM | HT-29 > 100 µM | UACC-257 > 100 µM | K562 > 100 µM | MDA-MB-435 > 100 µM | OVCAR-8 > 100 µM | OVCAR-5 > 100 µM | SW-620 > 100 µM | SF-539 > 100 µM | MOLT-4 > 100 µM | MDA-N > 100 µM | SF-295 > 100 µM | SK-MEL-28 > 100 µM | NCI-H23 > 100 µM | SN12C > 100 µM | Hs-578T > 100 µM

C/C=C/C[C@@H](C)C(=O)C1C(=O)N[C@@H](C(C)C)C(=O)N(C)CC(=O)N(C)[C@@H](CC(C)C)C(=O)N[C@@H](C(C)C)C(=O)N(C)[C@@H](CC(C)C)C(=O)N[C@@H](C)C(=O)N[C@@H](C)C(=O)N(C)[C@@H](CC(C)C)C(=O)N(C)[C@@H](CC(C)C)C(=O)N(C)[C@@H](C(C)C)C(=O)N1C (some centres not stated)
inactive: KM12 3.67 µM | SR 4.07 µM | HT-29 3.8 µM | UACC-257 5.33 µM | K562 4.45 µM | MDA-MB-435 3.35 µM | OVCAR-8 9.82 µM | OVCAR-5 7.87 µM | SW-620 5.24 µM | SF-539 4.23 µM | MOLT-4 2.35 µM | MDA-N 2.39 µM | SF-295 7.28 µM | SK-MEL-28 6.37 µM | NCI-H23 7.83 µM | SN12C 5.58 µM | OVCAR-4 2.74 µM | Hs-578T 6.21 µM

C#C[C@]1(O)CC[C@H]2[C@@H]3CCC4=C/C(=N/OCCN(C)C)CC[C@]4(C)[C@H]3CC[C@@]21C
inactive: Malme-3M 22.1 µM | KM12 52 µM | SR 12.1 µM | HT-29 6.78 µM | UACC-257 52.5 µM | K562 6.82 µM | MDA-MB-435 6.7 µM | OVCAR-8 49.7 µM | OVCAR-5 56.8 µM | SW-620 28.1 µM | MOLT-4 32.9 µM | MDA-N 11.1 µM | SF-295 6.97 µM | SK-MEL-28 51.5 µM | IGROV-1 50.7 µM | NCI-H23 36.1 µM | SN12C 44.3 µM | OVCAR-4 > 100 µM | Hs-578T 26.9 µM

CN1CCOC1c1ccccc1O (configuration not stated)
inactive: Malme-3M > 100 µM | KM12 > 100 µM | SR > 100 µM | HT-29 > 100 µM | UACC-257 > 100 µM | K562 > 100 µM | MDA-MB-435 > 100 µM | OVCAR-8 > 100 µM | OVCAR-5 > 100 µM | SW-620 > 100 µM | SF-539 > 100 µM | MOLT-4 > 100 µM | MDA-N > 100 µM | SF-295 > 100 µM | IGROV-1 > 100 µM | NCI-H23 > 100 µM | OVCAR-4 > 100 µM | Hs-578T > 100 µM

CP(=O)(O)C(N)c1ccccc1 (configuration not stated)
inactive: Malme-3M > 100 µM | KM12 > 100 µM | SR > 100 µM | HT-29 > 100 µM | UACC-257 > 100 µM | K562 > 100 µM | MDA-MB-435 > 100 µM | OVCAR-8 > 100 µM | OVCAR-5 > 100 µM | SW-620 > 100 µM | MOLT-4 > 100 µM | MDA-N > 100 µM | SF-295 > 100 µM | SK-MEL-28 > 100 µM | IGROV-1 > 100 µM | NCI-H23 > 100 µM | SN12C > 100 µM | OVCAR-4 > 100 µM | Hs-578T > 100 µM

CON(C)C(=O)C(Cc1ccccc1)NC(=O)OC(C)(C)C (configuration not stated)
inactive: Malme-3M > 100 µM | KM12 > 100 µM | SR > 100 µM | HT-29 > 100 µM | UACC-257 > 100 µM | K562 > 100 µM | MDA-MB-435 > 100 µM | OVCAR-8 > 100 µM | OVCAR-5 > 100 µM | SW-620 > 100 µM | SF-539 > 100 µM | MOLT-4 > 100 µM | MDA-N > 100 µM | SF-295 > 100 µM | SK-MEL-28 > 100 µM | IGROV-1 > 100 µM | NCI-H23 > 100 µM | SN12C > 100 µM | Hs-578T > 100 µM

CC(=O)C(C(C)=O)[C@H]1OC(C)(C)O[C@H]1[C@H]1COC(C)(C)O1
inactive: Malme-3M > 100 µM | KM12 35.7 µM | HT-29 33.6 µM | UACC-257 49.4 µM | K562 34.4 µM | MDA-MB-435 27.7 µM | OVCAR-8 34.7 µM | OVCAR-5 > 100 µM | SW-620 56.8 µM | SF-539 18.7 µM | MOLT-4 50.8 µM | MDA-N 55.3 µM | SF-295 29.2 µM | SK-MEL-28 97.3 µM | IGROV-1 53.5 µM | NCI-H23 30.8 µM | SN12C 29.6 µM | OVCAR-4 40.6 µM | Hs-578T 44.8 µM

Cc1ccc(-c2cc(-c3ccc(Cl)cc3)nc(/N=C3\C(=O)N(CN4CCOCC4)c4ccccc43)n2)cc1
inactive: Malme-3M 22.9 µM | KM12 22.4 µM | HT-29 20.1 µM | UACC-257 19.5 µM | K562 23.1 µM | MDA-MB-435 19 µM | OVCAR-8 19.5 µM | OVCAR-5 21.6 µM | SW-620 17 µM | SF-539 19.5 µM | MOLT-4 8.69 µM | MDA-N 18.5 µM | SF-295 40.9 µM | SK-MEL-28 49.1 µM | IGROV-1 15.2 µM | NCI-H23 18.8 µM | SN12C 30.8 µM | OVCAR-4 28.7 µM | Hs-578T 22.9 µM

O=C(O)Cc1ccc(Nc2nc3ccccc3nc2C(=O)O)cc1
inactive: Malme-3M > 100 µM | KM12 > 100 µM | SR > 100 µM | HT-29 > 100 µM | UACC-257 > 100 µM | MDA-MB-435 > 100 µM | OVCAR-8 > 100 µM | OVCAR-5 > 100 µM | SW-620 > 100 µM | SF-539 > 100 µM | MOLT-4 > 100 µM | MDA-N > 100 µM | SF-295 > 100 µM | SK-MEL-28 > 100 µM | IGROV-1 > 100 µM | NCI-H23 > 100 µM | SN12C > 100 µM | OVCAR-4 > 100 µM | Hs-578T > 100 µM

CCCCC(=O)/C=c1/cc(C)[nH]c2cccc3cnn1c32
inactive: Malme-3M > 100 µM | KM12 > 100 µM | SR 48 µM | HT-29 60.1 µM | UACC-257 > 100 µM | MDA-MB-435 64 µM | OVCAR-8 > 100 µM | OVCAR-5 > 100 µM | SW-620 > 100 µM | SF-539 > 100 µM | MOLT-4 > 100 µM | MDA-N > 100 µM | SF-295 > 100 µM | SK-MEL-28 > 100 µM | IGROV-1 > 100 µM | NCI-H23 > 100 µM | SN12C > 100 µM | OVCAR-4 > 100 µM | Hs-578T > 100 µM
